Reference: patent US9458101B2 (priority 2009, dated 2016)

Experiments:
[1] = test system: A549 (Human lung carcinoma); experiment: Cytotoxicity testing (MTS) on A549; assay type: cell-based
Experimental: (§1) Cell lines used were A549 (Human lung carcinoma), HeLa (Human cervical carcinoma), MCF-7 (Human mammary gland adenocarcinoma), CEM (Human T-lymphoblastoid from ALL (Acute lymphoblastic leukemia)), M010B (Human glioma), M006X (Human glioma) and Jurkat (Human T-cell leukemia).
(§2) A series of dilutions were prepared and a wavelength scan of the diluted solution was used to determine the wavelength of maximum absorbance for each compound. Five standardized drug concentrations were scanned at this pre-determined wavelength to obtain an estimate of the compound's extinction coefficient.
(§3) A primary MTS assay was used to test the optimal number of cells for cytotoxicity assays. Cells were trypsinized, counted and introduced into seven lanes of a 96-well plate at different cell numbers (eight replicates per lane). Optimal cell numbers were determined after 72 and 96 hours of growth and were used in subsequent cytotoxicity assays. […] Cell viability was determined using the Cell Titer 96 AQueous One Solution Cell Proliferation Assay (Promega, U.S.A.).
(§4) Fits were performed using a dose-response model ideal for data showing an initial response plateau, a transition region, and a final response plateau.
(§5) [formula] […] Itop is the response obtained at very low/no drug concentration. The data and all parameters were normalized to Itop−Ibot, a measure of the maximum effect of the drug.

[2] = test system: HeLa (Human cervical carcinoma); experiment: Cytotoxicity testing (MTS) on HeLa; assay type: cell-based
Experimental: as §1, §2, §3, §4, §5

[3] = test system: MCF-7 (Human mammary gland adenocarcinoma); experiment: Cytotoxicity testing (MTS) on MCF-7; assay type: cell-based
Experimental: as §1, §2, §3, §4, §5

[4] = test system: CEM (Human T-lymphoblastoid from ALL); experiment: Cytotoxicity testing (MTS) on CEM; assay type: cell-based
Experimental: as §1, §2, §3, §4, §5

M010B (Human glioma) = experiment: Cytotoxicity testing (MTS) on M010B; assay type: cell-based
Experimental: as §1, §2, §3, §4, §5

M006X (Human glioma) = experiment: Cytotoxicity testing (MTS) on M006X; assay type: cell-based
Experimental: as §1, §2, §3, §4, §5

[5] = test system: A549, HeLa, MCF-7 and CEM cell lines; experiment: Cytotoxicity, mean over A549, HeLa, MCF-7 and CEM cell lines; settings: for cytotoxicity compared with colchicine: cytotoxicity assays; for IC50 [log10 M] (mean logIC50): mean over A549, HeLa, MCF-7 and CEM cell lines
Text: as §1, §3, §5
Cytotoxicity screening was performed on a number of cell lines based on the cancer of origin and differing morphologies.

Row | Compound | Fraction of cells that survive at the highest drug concentrations (Ibot) [1] | logIC50 [1] [log10 M] | Fraction of cells that survive at the highest drug concentrations (Ibot) [2] | logIC50 [2] [log10 M] | Fraction of cells that survive at the highest drug concentrations (Ibot) [3] | logIC50 [3] [log10 M] | Fraction of cells that survive at the highest drug concentrations (Ibot) [4] | logIC50 [4] [log10 M] | Fraction of cells that survive at the highest drug concentrations (Ibot) (M010B (Human glioma)) | logIC50 (M010B (Human glioma)) [log10 M] | Fraction of cells that survive at the highest drug concentrations (Ibot) (M006X (Human glioma)) | logIC50 (M006X (Human glioma)) [log10 M] | cytotoxicity compared with colchicine [5] | IC50 [log10 M] (mean logIC50) [5] | average IC50 values compared with colchicine ([5]; average values of Table 3)
1 | C=CCOc1c(OC)c(OC)cc2c1-c1ccc(OC)c(=O)cc1[C@@H](NC(C)=O)CC2 [Compound 9] | 0.227 ± 0.021 | −6.66 ± 0.10 | 0.082 ± 0.018 | −7.35 ± 0.09 | 0.484 ± 0.009 | −7.10 ± 0.05 | −0.004 ± 0.015 | −7.46 ± 0.08 | 0.299 ± 0.017 | −6.74 ± 0.08 | 0.037 ± 0.015 | −7.47 ± 0.09 | moderately better than colchicine | −7.15 ± 0.08 | –
2 | COc1cc2c(c(OCc3ccccc3)c1OC)-c1ccc(OC)c(=O)cc1[C@@H](NC(C)=O)CC2 [Compound 10, N-[(7S)-2,3,10-trimethoxy-9-oxo-1-((phenyl)methoxy)-5,6,7,9-tetrahydrobenzo [α]heptalen-7-yl]acetamide] | 0.256 ± 0.032 | −5.77 ± 0.10 | 0.080 ± 0.026 | −6.17 ± 0.07 | 0.387 ± 0.016 | −6.27 ± 0.08 | 0.012 ± 0.022 | −6.45 ± 0.09 | 0.250 ± 0.031 | −5.66 ± 0.10 | 0.088 ± 0.022 | −6.42 ± 0.09 | – | −6.16 ± 0.08 | –
3 | COc1cc2c(c(OCc3cccc(Cl)c3)c1OC)-c1ccc(OC)c(=O)cc1[C@@H](NC(C)=O)CC2 [Compound 12, N-[(7S)-2,3,10-trimethoxy-9-oxo-1-((phenyl(3-chloro))methoxy)-5,6,7,9-tetrahydrobenzo[α]heptalen-7-yl]acetamide] | 0.245 ± 0.024 | −6.00 ± 0.04 | 0.040 ± 0.038 | −6.43 ± 0.15 | 0.390 ± 0.025 | −6.30 ± 0.12 | −0.015 ± 0.021 | −6.46 ± 0.09 | 0.328 ± 0.022 | −6.39 ± 0.11 | 0.051 ± 0.027 | −6.47 ± 0.12 | – | −6.30 ± 0.10 | –
4 | COc1cc2c(c(OCc3ccc(Cl)cc3)c1OC)-c1ccc(OC)c(=O)cc1[C@@H](NC(C)=O)CC2 [Compound 15] | 0.288 ± 0.020 | −6.23 ± 0.08 | 0.039 ± 0.034 | −6.22 ± 0.09 | 0.381 ± 0.024 | −6.35 ± 0.12 | −0.016 ± 0.032 | −6.57 ± 0.11 | 0.382 ± 0.028 | −6.38 ± 0.14 | 0.058 ± 0.030 | −6.45 ± 0.13 | – | −6.34 ± 0.10 | –
5 | CCOc1cc2c(c(OC)c1OC)-c1ccc(SC)c(=O)cc1[C@@H](NC(C)=O)CC2 [Compound 42, N-[(7S)-3-ethoxy-1,2-dimethoxy-10-methylsulfanyl-9-oxo-5,6,7,9-tetrahydrobenzo[α]heptalen-7-yl]acetamide] | 0.256 ± 0.015 | −8.37 ± 0.10 | 0.046 ± 0.026 | −8.47 ± 0.14 | 0.538 ± 0.010 | −8.28 ± 0.10 | 0.026 ± 0.018 | −8.64 ± 0.09 | 0.327 ± 0.023 | −8.27 ± 0.12 | 0.184 ± 0.021 | −8.83 ± 0.08 | consistently the most effective | −8.44 ± 0.11 | stronger than colchicine
6 | N-[(7S)-2,3,10-trimethoxy-1-((methyl)cyclohexane)-9-oxo-5,6,7,9-tetrahydrobenzo[α]heptalen-7-yl]acetamide [Compound 16] | – | −4.95 ± 0.07 | – | −5.33 ± 0.11 | – | −5.22 ± 0.08 | – | −5.53 ± 0.10 | – | −5.20 ± 0.08 | – | −5.44 ± 0.12 | – | −5.26 ± 0.09 | –
7 | N-[(7S)-2,3,10-trimethoxy-9-oxo-1-(((3-methoxy)propan)oxy)(3-methoxy))-5,6,7,9-tetrahydrobenzo[α]heptalen-7-yl]acetamide [Compound 11] | – | −6.47 ± 0.12 | – | −7.23 ± 0.09 | – | −7.05 ± 0.04 | – | −7.45 ± 0.09 | – | −6.74 ± 0.08 | – | −7.40 ± 0.09 | – | −7.05 ± 0.09 | –
